Test results: patent US20250282714A1, “COMPOSITIONS FOR AND METHODS OF MODULATING RNA STABILITY” (Duke University, priority 2022, published 2025)
Several values for one entry are separate records, joined by “and”; a condition that tells them apart may be missing. Equal entries are not always repeated. Entries after “also recorded” stand apart in the source; their conditions may differ.

Tests used:
MALAT1 triple helix [1] = assay: RiboGreen indicator displacement assay (IDA); assay type: binding, human; settings: for affinity for the MALAT1 triple helix (in words): RiboGreen IDA
Procedure: The protocol was adapted from a previously reported procedure. (Donlic A, et al. (2020) Nucleic Acids Res. 48(14):7653-7664). A serial dilution of the MALAT1 triple helix RNA was performed in HEPES buffer (20 mM HEPES-KOH, 52.6 mM KCl, 0.1 mM MgCl2, pH=7.4) in a 96 well plate in triplicate. […] of each dilution were transferred to a 384 well plate followed by […] of a 500 nM solution of RiboGreen dye in the same buffer (Invitrogen™). The plates were excited at 487 nm (8 nm slit) and emission was recorded at 530 nm (8 nm slit, focal height 11.3 mm) using a CLARIOstar plate reader (BMG labtech). The affinity of the dye for the RNA construct was determined by fitting the raw fluorescence in GraphPad Prism version 8.3.1 for Macintosh (GraphPad Software, La Jolla California USA, (www.graphpad.com)) by fitting to the Log[Agonist] vs. response—variable slope model that using Equation (1) below.
where Y is normalized % change in fluorescence intensity, X is RNA concentration, Bottom is lowest fluorescence % change and Top is highest fluorescence % change. Affinity of the dye for the RNA construct was used as the ideal RNA concentration (174 nM) for small molecule titrations.
A serial dilution of small molecule (0, 0.5 μM, 1.0 μM, 2.5 μM, 5 μM, 7.5 μM, 10.0 μM, 12.5 μM, 25 μM, 50 µM, 75 μM, 100 μM, 125 μM, 150 μM, 250 μM, 500 µM) was performed in HEPES buffer (20 mM HEPES-KOH, 52.6 mM KCl, 0.1 mM MgCl2, pH=7.4) in a 96 well plate in triplicate. Then, 8 μL of each dilution were transferred to a 384 well plate, followed by 8 μL of a 174 nM solution of MALAT1 RNA and […] of RiboGreen™ (Invitrogen™). The RNA was previously annealed by heating to 95° C. for 5 minutes and cooling to 0° C. on ice for 30 minutes. The 384 well plates were shaken for 5 minutes, centrifuged at 4000 rpm for 1 minute, and incubated in the dark for 20 minutes. The plates were excited at 487 nm (8 nm slit) and emission was read at 525 nm (8 nm slit, focal height […]) using a CLARIOstar plate reader (BMG Labtech). Percent fluorescence indicator displacement (% FID) was calculated by subtracting and, subsequently, dividing by the blank wells with RNA-dye complex and no small molecule as shown in Equation (2).
Where Fo is the fluorescence of the blank well with RNA+dye and no small molecule and F is the fluorescence of the well with all three components (RNA+dye+small molecule).
Each technical triplicate was averaged, and the resulting FID values were averaged between three independent experiments. The binding curve and Log (CD50) value was obtained by using a non-linear fit curve (Log[Agonist] vs. response) with variable slope at four parameters (GraphPad Prism Software version for Macintosh 8.3.1, La Jolla, California, USA (www.graphpadprism.com)) as shown in Equation 1. Reported values are averages of three independent experiments=standard deviation.
Given the structural differences between secondary and tertiary structures, where more continuous and complex base-pairing occurs, the design and optimization of an RNA triple helix IDA amenable to HTS was the first focused on. The utility of RiboGreen™ dye was confirmed as an indicator. The RiboGreen™ structure is proprietary, and stoichiometry is thus unconfirmed. Upon assay optimization, the 21-member library was screened using a 16-point titration in three independent replicates (FIG. 2A, FIG. 12A-FIG. 12U).

MALAT1 triple helix [2] = assay: RNase A enzymatic degradation assay; assay type: biochemical, human; settings: for stabilizing / destabilizing compound (as listed 'in an aspect'): stabilizing = less, destabilizing = more degradation in an enzymatic assay than control
Procedure: The procedure was adapted from a published protocol for exonucleolytic enzymatic degradation assay. (Donlic A, et al. (2020) Nucleic Acids Res. 48(14):7653-7664). The MALAT1 destabilizing small molecules published by Le Grice (Abulwerdi F A, et al. (2019) ACS Chem Biol. 14(2):223-235) and co-workers SM5 and SM16 were purchased from ChemBridge. For a typical 70 μL reaction, […] of MALAT1 triple helix RNA was annealed in the same buffer used for IDA and DSF experiments (20 mM HEPES-KOH, 52 mM KCl, 0.1 mM MgCl2, pH=7.4) by heating at 95° C. for 3 minutes, snap-cooling on ice for 10 minutes, and leaving the solution at room temperature for 1 hr.
RNase A enzyme (ThermoFisher) was diluted to 1.46 nM and incubated with 1 M NaCl for 30-35 minutes to achieve ssRNA selectivity as reported. (Struhl K, et al. (1989) Current Protocols in Molecular Biology. 8(1):3.13.1-3.13.3). Next, the RNA was mixed with 0.2 μM of a GC-rich DNA duplex, […] of small molecule/DMSO and incubated at room temperature for 20 minutes. Following the incubation, […] of RNase A was added, and the reaction was incubated at 37° C. for 1 hour in a thermal cycler with a heated lid (Eppendorf). 4 μL timepoint aliquots were taken at 0, 5, 10, 30, and 60 minutes, 4 μL of 2×RNA loading dye was added to each aliquot (ThermoFischer Scientific), and samples were stored at −80° C. prior to gel analysis. Reactions were analyzed on pre-cast 15% PAGE-Urea gels (Invitrogen) in 1×TBE buffer. Aliquots were thawed from −80° C. storage and heated to 95° C. for 15 minutes prior to gel loading and […] were loaded in each well. Gels were run for 45 minutes at 180 V, stained with Diamond™ Nucleic Acid dye (Promega), and visualized on an iBright 500 (ThermoFisher). DMSO controls were ran with every set of 4 small molecules to ensure consistency of enzyme activity and RNA integrity. Gel band intensity of the MALAT1 triple helix and DNA loading control were quantified using ImageJ software. (Rueden C T, et al. (2017) BMC Bioinformatics. 18(1):529).
To quantify time-dependent endonucleolytic degradation for each sample, the intensity was normalized using Equation (3), and fold-difference was calculated as listed in Equation (4) as previously reported. (Donlic A, et al. (2020) Nucleic Acids Res. 48(14):7653-7664).
where y is normalized RNA area for a specific time point and the sample (tx), TH (triple helix). Area is the raw band intensity for the RNA in the lane corresponding to time point x for that sample, LC (loading control). Area (t0) is the raw band intensity for the DNA in the lane corresponding to the 0 minute time point for the sample, and LC Area (tx) is the raw band intensity for the DNA in the lane corresponding to time point x for that sample.
where y is fold-difference of the exonucleolytic degradation for the specific sample, with normalized areas for its specific time point x and time point 0 calculated as described in Equation (3). Percent RNA degraded was calculated for every time point using Equation (5).
% RNA degraded=(Normalized area (t0)−Normalized area (tx))*100 (Equation 5)
Experimental results shown in FIG. 6C are plotted as three independent replicates and standard deviation between replicates as error bars. Relative fold change between treated condition and DMSO was calculated from Equation (6).
The library was screened using a more biologically relevant in vitro enzymatic degradation assay. Previous work evaluated the effect on triplex degradation of various ionic buffer conditions (Ageeli A A, et al. (2018) Nucleic Acids Res. 47(3):1468-1481) and a sub-set of DPF small molecules (Donlic A, et al. (2020) Nucleic Acids Res. 48(14):7653-7664) using E. coli RNase R exonuclease as it degrades from 3′ to 5′, reporting on the availability of the poly(A) tail normally sequestered in the triplex construct. […]

MALAT1 triple helix [3] = assay: Differential scanning fluorimetry (DSF), thermal stability; assay type: binding, human; settings: for effect on MALAT1 triplex thermal stability (in words): DSF
Procedure: Differential scanning fluorimetry experiments were performed as previously reported. (Donlic A, et al. (2020) Nucleic Acids Res. 48(14):7653-7664). All experiments were performed in white 96 well plates in a LightCycler® 96 (Roche). In a typical experiment, 4 μM of RNA was annealed in the same buffer used for indicator displacement assays (20 mM HEPES-KOH, 52.6 mM KCl, 0.1 mM MgCl2, pH=7.4) by heating at 95° C. for 3 minutes, snap-cooling on ice for 10 minutes, and leaving the solution at room temperature for 1 hr. Then, 42 μL of this solution was aliquoted to wells and 5 μM of ligand was added (2.5 μL of water, 2.0 μL of DMSO, 0.5 μL of 500 μM small molecule stock). The mixture was left to incubate at room temperature for 5 minutes, after which 3 μL of a 20 μM Quant-iT™ RiboGreen™ (ThermoFisher Scientific) dye stock solution in appropriate buffer was added to each well. The 96 well plate was then sealed with an optically clear foil and centrifuged for 1 minute at 4000 rpm prior to being placed in the instrument. The light cycler program was created by selecting the melting curve method; fluorescence intensity was monitored using the SYBR Green I/HRM dye filter combination (465-510 nm) from 37-98° C. at a ramp rate of 0.01° C./second with 150 acquisitions per° C. Melting profiles were obtained by Tm analysis in the LightCycler® 96 software (SW 1.1).
The MALAT1 triple helix is known to confer stability to the full-length transcript and protect it from RNase-mediated degradation, ultimately resulting in transcript accumulation and aggregation in nuclear speckles. (Brown J A, (2020) WIREs RNA. 11(6):e1598; Wilusz J E, et al. (2012) Genes Dev. 26(21):2392-2407; Brown J A, et al. (2014) Nat Struct Mol Biol. 21(7):633-640; Tycowski K T, et al. (2016) Cell Rep. 15(6):1266-1276). To better understand how the diminazene focused library affects the MALAT1 triplex stability, the entire library was evaluated via differential scanning fluorimetry (DSF) (FIG. 5A). This method allows for rapid assessment of small molecule effects on nucleic acid thermal stability (Silvers R, et al. (2015) Chembiochem. 16(7):1109-1114) in a 96-well plate format, substantially reducing the time and cost associated with traditional UV-melting experiments.
The bi-phasic melting profile distinctive of triple helices is attributed to an initial melting of the Hoogsteen triple base pairs followed by dissociation of Watson-Crick-Franklin base pairs (FIG. 16A-FIG. 16E). (Pilch D S, et al. (1995) Biochemistry. 34(49):16107-16124). At an equimolar ratio of RNA:small molecule, a range of thermal stabilization of the first (Tm1) was observed, but not the second (Tm2) melting peak (FIG. 5A, FIG. 13A-FIG. 13Z). At increasing small molecule concentration, a dose-dependent increase in ΔTm1 but not in ΔTm2 was observed, indicating small molecule interactions in the triplex region and not in the upper stem region (FIG. 15).

[4] = 5-minute time point, relative to DMSO control

Row | Structure (SMILES) | affinity for the MALAT1 triple helix (in words) (MALAT1 triple helix [1]) | effect on MALAT1 triplex thermal stability (in words) (MALAT1 triple helix [3]) | stabilizer / destabilizer classification by RNase A degradation (MALAT1 triple helix [2]; [4]) | other results
1 | N=C(NCc1ccc(Cl)cc1)c1ccc(/N=N/Nc2ccc(C(=N)NCc3ccc(Cl)cc3)cc2)cc1 [DMZ-P5] | – | – | – | fold higher affinity, para scaffold versus ortho scaffold (MALAT1 triple helix [1]; subunit R-5: DMZ-P5 versus DMZ-O5): 13 fold
2 | CN(C)c1ccc(CN2CCC(CCNC(=N)c3ccc(/N=N/N(C)c4ccc(C(=N)NCCC5CCN(Cc6ccc(N(C)C)cc6)CC5)cc4)cc3)CC2)cc1 [DMZ-NMe-P38] | – | – | – | stabilizing / destabilizing compound (as listed 'in an aspect') (MALAT1 triple helix [2]): destabilizing
3 | N=C(NCc1ccccc1)c1cccc(/N=N/Nc2cccc(C(=N)NCc3ccccc3)c2)c1 [DMZ-M4] | mediocre affinity | increases in thermal stability; also recorded: mediocre | destabilizers | increase of the amount of MALAT1 degraded at 5 minutes (MALAT1 triple helix [2]; [4]): 2 fold and > 2 fold
4 | N=C(NCc1ccccc1)c1ccccc1/N=N/Nc1ccccc1C(=N)NCc1ccccc1 [DMZ-O4] | no affinity | – | – | –
5 | CCCCNC(=N)c1ccc(/N=N/Nc2ccc(C(=N)NCCCC)cc2)cc1 [DMZ-P17] | moderate affinity | negligible thermal stabilization | – | –
6 | CN(/N=N/c1ccc(C(=N)NCCC2CCN(Cc3ccccc3)CC2)nc1)c1ccc(C(=N)NCCC2CCN(CC3C=CC=CC3)CC2)nc1 (stereo not shown) [DMZ-NMe-mPy-P1] | – | – | – | stabilizing / destabilizing compound (as listed 'in an aspect') (MALAT1 triple helix [2]): destabilizing
7 | N=C(NCc1ccco1)c1cccc(/N=N/Nc2cccc(C(=N)NCc3ccco3)c2)c1 [DMZ-M15] | moderate affinity | negligible thermal stabilization | – | –
8 | CN(C)CCCNC(=N)c1ccc(/N=N/Nc2ccc(C(=N)NCCCN(C)C)cc2)cc1 [DMZ-P1] | – | increases in thermal stability | destabilizers | effect on Tm1 (ΔTm1, first melting peak) (MALAT1 triple helix [3]; equimolar RNA:small molecule, versus DMSO vehicle): approximately 6.1 °C; strength class of stabilizer / destabilizer (change in degradation) (MALAT1 triple helix [2]; [4]): weak destabilizer (weak destabilizer (<50% increase in degradation))
9 | N=C(N)c1ccc(/N=N/Nc2ccc(C(=N)N)cc2)cc1 [DMZ-P0, diminazene, reference compound] | – | increases in thermal stability | destabilizers | –
10 | N=C(NCCc1cccnc1)c1cccc(/N=N/Nc2cccc(C(=N)NCCc3cccnc3)c2)c1 [DMZ-M3] | moderate affinity | negligible thermal stabilization | – | –
11 | N=C(NCc1ccc(Cl)cc1)c1ccccc1/N=N/Nc1ccccc1C(=N)NCc1ccc(Cl)cc1 [DMZ-O5] | – | – | much stronger destabilizing effect | stabilizing / destabilizing compound (as listed 'in an aspect') (MALAT1 triple helix [2]): stabilizing; also recorded: destabilizing
